These results are taken from patent US20070092942A1, “Ubiquitin specific enzymes of family herpesviridae” (priority 2005, published 2007).

One assay concerns the target T1, His6UL36^USP (Human herpesvirus 1, UniProt P10220).
T1 construct: amino acids 1 to 533 of the UL36 gene product from HHV HSV1; 6-His (pET-28a(+)) (N); 6-His (pET-28a(+)) (C); made in house; host or cells: E. coli BL21 or BL21 RIPL
The assay is described as follows: Cleavage of Ub-AMC by recombinant UL36^USP. The note with it: 10 pmol inhibitor pre-incubated 30 minutes with ~0.1 pmol enzyme. Type of assay: biochemical, HSV-1. On the procedure: Recombinant UL36^USP and UL36^USP/C65A (˜0.1 pmol) were incubated in 125 μl kinetics buffer (50 mM HEPES, pH 7.5, 0.5 mM EDTA) supplemented with 1 mM DTT at room temperature for 10 minutes. To this was added 75 μl of Ub-AMC (250 nM in kinetics buffer) and AMC liberation was measured at 25° C. For inhibition experiments, one of UbVME, SUMO-VME, ISG15-VS, or Nedd8-VS (10 pmol) was incubated with recombinant UL36^USP (˜0.1 pmol) for 30 minutes at room temperature. To this was added 75 μl of Ub-AMC (250 nM in kinetics buffer) and AMC liberation was measured. Cleavage experiments were performed in triplicate. All fluorescence measurements were made using a Wallac Victor^3 1420 fluorescence/luminescence plate reader (Perkin Elmer) using 380 nm excitation and 460 nm emission wavelengths, with 5 second intervals between measurements. Data were exported as an Excel file and plotted as mean values of replicate experiments using Kaleidagraph v3.6 (Synergy Software).
In a typical eukaryotic cell, the presence of multiple DUBs, whose substrate pool and catalytic activities may overlap, confounds straightforward analysis of the activity of any one particular DUB. Although we have found excellent correlation between labeling of polypeptides with the Ub/UbL probes and their identification as active DUBs, the probes are covalent inactivators and cannot be used to assess enzymatic (i.e. catalytic) peptidase activity. To validate the activity of UL36^USP as a protease with specificity for Ub-modified substrates, we cloned a sequence spanning the 533 N-terminal amino acids of HSV-1 UL36^USP into a His-tagged expression vector (His6-UL36^USP). We also generated a point mutant of this construct in which the active site cysteine residue, Cys^65, was replaced by alanine (His6UL36^USP/C65A). The proteins were expressed, purified over Ni-NTA resin and evaluated for their ability to cleave Ub C-terminal 7-amido-4-methylcoumarin (Ub-AMC) (Dang et al., 1998). […] The results are consistent with the labeling experiments using UbL probes with HSV-1-infected lysates (FIG. 4B).

Another assay deals with UL36^USP. The experiment in a line: Electrophilic probe labeling of HSV-1 infected HFF cell lysates, immunoblot. Type of assay: binding. The note with it: for Labeling / reaction of UL36^USP by electrophilic probe: HSV-infected HFF lysates, immunoblot. The procedure: HFFs were infected with HSV-1 KOS at an MOI of 10 and harvested by trypsinolysis at the indicated times post infection. Cells were washed 1× in PBS and pelleted by centrifugation in a microcentrifuge at 3,000×g for 20 minutes at 4° C. Cells were lysed by adding 2× the pellet volume of NP40 lysis buffer (150 mM NaCl, 50 mM Tris pH 7.4, 5 mM MgCl2, 0.5 mM EDTA, 2 mM DTT, 2 mM ATP, 0.5% NP40) and rocking at 4° C. for 1 hour. Cell lysates were centrifuged at 12,000×g for 20 minutes at 4° C. Protein concentration of supernatants was established by Bradford assay and lysates were standardized to 5 μg/μl by the addition of the required volume of NP40 lysis buffer. For each labeling reaction, 50 μg of lysate was incubated with 0.8 μg of probe in a total volume of 60 μL of homogenization buffer (50 mM Tris pH 7.5, 5 mM MgCl2, 0.5 mM EDTA, 2 mM DTT, 2 mM ATP, 250 mM sucrose). For reactions involving NEM, lysates were incubated at room temperature for 30 minutes with 5 mM NEM prior to addition of probe. Reactions were incubated for 30 minutes at R.T. Samples were boiled in reducing sample buffer and separated by SDS-PAGE. Proteins were transferred to PVDF membranes and immunoblotted with mouse monoclonal anti-HA antibody (12CA5) at 1:4000 dilution followed by goat anti-mouse IgG-HRP (Southern Biotech) at 1: 10,000 dilution. Blots were developed using Western Lightning chemiluminescence reagent (Perkin Elmer).
To profile DUB activity during HSV-1 infection, we used HA-tagged Ub-vinylmethyl ester (HAUbVME) (Borodovsky et al., 2002). Human foreskin fibroblasts (HFFs) were infected with HSV-1 at a multiplicity of infection of 10, harvested at 4, 6, 9, 12, 22 and 30 hours post-infection (p.i.), and lysed.
To address whether UL36^USP labeling by HAUbVME was a consequence of the Ub or the VME moiety, we incubated lysates of HSV-infected HFFs at 24 hours p.i. with related electrophilic derivatives (Borodovsky et al., 2002). […] There are a number of Ub-like (UbL) proteins in eukaryotes (Larsen and Wang, 2002). This family of UbL proteins has diversified functionally to cover many cellular pathways: SUMO proteins function in nuclear signaling and transcription (Hay, 2005); ISG15 is an interferon-inducible gene product (Ritchie and Zhang, 2004); and the closest homolog of Ub, Nedd8, is an activator of the cullin family of E3 Ub ligases (Petroski and Deshaies, 2005; Willems et al., 2004). Probes derived from Ub and UbL modifiers target proteases that are either specific for a single Ub/UbL or selective for a limited number of these proteases (Borodovsky et al., 2002; Hemelaar et al., 2004). We explored the reactivity of UL36^USP with Ub and UbL-derived probes to determine its specificity. We incubated lysates of mock-infected and HSV-infected HFFs at 24 hours p.i. with either HAUbVME or with one of three UbL probes, HA-SUMO-1-VME, HA-ISG15-VME or FLAG-Nedd8-VS (FIG. 4B).

Assay [1] has as its target T2, EBV205 (AA 1-205 of EBV BPLF1) (Epstein-Barr virus, UniProt P03186).
T2 construct: encoding for AA 1-205 of EBV (EBV205) and AA 1-285 of mCMV (mCMV285); His-tag (pET28) (N); made in house; host or cells: E. coli BL21-DE3
The class given is binding. The source says: (§1) To investigate functionality of this minimal DUB consensus domain we cloned the relevant genomic fragments for heterologous expression and subsequent biochemical characterization. The corresponding DNA fragments, encoding for AA 1-205 of EBV (EBV205) and AA 1-285 of mCMV (mCMV285), were PCR-cloned into pET28 according to standard procedures. Following expression in E. coli BL21-DE3, the fragments bearing a N-terminal His-tag were purified using a Ni-NTA resin (Qiagen) and subsequently subjected to a gel filtration column (S75 HiLoad, Amersham Pharmacia Biotech) equilibrated in storage buffer (50 mM Tris, 50 mM KCl, 50 mM NaCl, 0.5 mM EDTA, 2 mM DTT, 10% (v/v) glycerol, pH 7.5) to achieve apparent homogeneity. To address whether the purified constructs display DUB activity, we used HA-tagged Ub-vinylmethyl ester (HAUbVME), a probe that acts as suicide substrate for DUBs by forming a thioether bond to the active site cysteine. Reactions were performed using final concentrations of 1 μM enzyme (EBV205 or mCMV285) in the absence and presence of 2 μM HAUbVME in reaction buffer (50 mM Tris, 100 mM NaCl, 1 mM DTT pH 7.5) for 30 min at 37° C. Following incubation, samples were boiled in reducing sample buffer and subjected to SDS-PAGE.
(§2) In the case of mCMV, we also constructed a longer variant that terminates at position 575 (mCMV575).

Assay [2] has as its system mCMV285, mCMV575 (mCMV UL36 homologue). The assay is described as follows: HAUbVME labeling of purified recombinant mCMV285 / mCMV575, SDS-PAGE and immunoblot. The class given is binding, mouse cytomegalovirus.
Source text: as §1, §2

Another assay addresses T3, EBV205 (Epstein-Barr virus, UniProt P03186).
T3 construct: encoding for AA 1-205 of EBV (EBV205) and AA 1-285 of mCMV (mCMV285); His-tag (pET28) (N); made in house; host or cells: E. coli BL21-DE3
The class given is biochemical. The note with it: enzyme 100 pM, Ub-AMC 100 nM. On the procedure: (§3) We next tested the ability of the enzymes to cleave Ub-AMC (Ub C-terminal 7-amido-4-methylcoumarin, Boston Biochem). UbAMC hydrolysis assays were performed in reaction buffer supplemented with BSA (50 μg/ml) by incubating the enzymes (100 pM) with a large excess of Ub-AMC (100 nM). […] To address this issue, we tested the potential of several inhibitors to block DUB activity in Ub-AMC hydrolysis assays. Enzymes were preincubated for 1 h with a 100-fold molar excess of electrophilic derivatives of Ub, SUMO, NEDD8, and ISG15, all carrying a VME moiety as the electrophile at their C-terminus.

The next assay deals with mCMV285, mCMV575. The assay is described as follows: UbAMC hydrolysis assay with mCMV285 and mCMV575. The class given is biochemical, mouse cytomegalovirus. Conditions: enzyme 100 pM, Ub-AMC 100 nM. On the procedure:
as §3

Setting [3] is: 1 μM enzyme, 2 μM HAUbVME, 30 min at 37° C.
[4] abbreviates: preincubated 1 h with 100-fold molar excess of inhibitor.
Where [5] appears, read: pretreatment with 10 mM NEM for 10 min.

Turning to “SUMO-1-VS: electrophilic SUMO-1 derivative used as inhibitor”, the “Inhibition of Ub-AMC cleavage by His6UL36^USP” value (from here on “Inhibition of Ub-AMC cleavage”) in the assay with His6UL36^USP is “rates nearly identical to hydrolysis in the absence of these inhibitors”.
“HAUbVME: HA-tagged Ub-vinylmethyl ester, electrophilic Ub probe forming thioether bond to DUB active site cysteine”: in the assay on UL36^USP, the “Labeling / reaction of UL36^USP by electrophilic probe” value (“Labeling / reaction of UL36^USP” for short) is “observed labeling”. Further, the “Covalent modification of EBV205 by probe (shift in electrophoretic mobility)” value in assay [1] (setting [3]) is on record as “covalent modification”. In addition, in assay [2] (setting [3]), the “Covalent modification of mCMV285 by probe (shift in electrophoretic mobility)” value was “covalent modification”.
For the molecule “FLAG-Nedd8-VS: UbL probe (9.7 kDa), FLAG-tagged Nedd8 vinylsulfone”, the “Labeling / reaction of UL36^USP” value in the assay with UL36^USP is “did not observe reaction”.
Take “UbVME: electrophilic derivative of Ub carrying a VME moiety at its C-terminus, covalent DUB inhibitor”: the “Inhibition of Ub-AMC cleavage” value with His6UL36^USP is given as “complete inhibition”. Moreover, in the assay with EBV205 (setting [4]), the “Inhibition of UbAMC hydrolytic activity of EBV205” value is on record as “completely inhibited”. The “Inhibition of UbAMC hydrolytic activity of mCMV285 / mCMV575” value in the assay with mCMV285, mCMV575 (setting [4]) was “completely inhibited”.
“Nedd8-VS: electrophilic Nedd8 vinylsulfone derivative used as inhibitor”: the “Inhibition of Ub-AMC cleavage” value with His6UL36^USP is given as “rates nearly identical to hydrolysis in the absence of these inhibitors”.
Regarding “HAUbVS: HAUb-vinylsulfone, Ub-derived electrophilic probe”, the “Labeling / reaction of UL36^USP” value in the assay on UL36^USP is on record as “comparably robust labeling”.
The same measure, in the same setting: the entry for “HA-ISG15-VME: UbL probe (18.8 kDa), HA-tagged ISG15 vinylmethyl ester” is “did not observe reaction”.
Turning to `CCN1C(=O)C=CC1=O` [NEM, N-ethylmaleimide], the “Effect on labeling of the 57 kDa polypeptide with HAUbVME” value in the assay with UL36^USP (HSV-1 infected HFF lysates, 5 mM NEM 30 minutes prior to probe) is on record as “inhibited”. Further, the “Effect on labeling of EBV205 with HAUbVME probe” value in assay [1] (setting [5]) is listed as “completely blocked labeling”. Further, in assay [2] (mCMV575 variant), the “Effect on reaction of mCMV575 with HAUbVME” value is “NEM-sensitive”. Moreover, in assay [2] (setting [5]), the “Effect on labeling of mCMV285 with HAUbVME probe” value is “completely blocked labeling”. Moreover, the “Sensitivity of UbAMC hydrolysis by EBV205 to NEM” value on EBV205 is listed as “sensitive to NEM”. Moreover, the “Sensitivity of UbAMC hydrolysis by mCMV285 / mCMV575 to NEM” value in the assay on mCMV285, mCMV575 is “sensitive to NEM”.
Regarding “HA-SUMO-1-VME: UbL probe (12.8 kDa), HA-tagged SUMO-1 vinylmethyl ester”, the “Labeling / reaction of UL36^USP” value with UL36^USP is on record as “did not observe reaction”.
In the case of “ISG15-VS: electrophilic ISG15 derivative used as inhibitor”, the “Inhibition of Ub-AMC cleavage” value in the assay with His6UL36^USP is listed as “rates nearly identical to hydrolysis in the absence of these inhibitors”.
